Each structure is given as a SMILES string.

One test concerns the target T1, human PAH with the R408W mutation (A375 R408W cells) (Homo sapiens, UniProt P00439, R408W).
T1 construct: expressed in transfected cells
T1 sequence (P00439 1-452 R408W): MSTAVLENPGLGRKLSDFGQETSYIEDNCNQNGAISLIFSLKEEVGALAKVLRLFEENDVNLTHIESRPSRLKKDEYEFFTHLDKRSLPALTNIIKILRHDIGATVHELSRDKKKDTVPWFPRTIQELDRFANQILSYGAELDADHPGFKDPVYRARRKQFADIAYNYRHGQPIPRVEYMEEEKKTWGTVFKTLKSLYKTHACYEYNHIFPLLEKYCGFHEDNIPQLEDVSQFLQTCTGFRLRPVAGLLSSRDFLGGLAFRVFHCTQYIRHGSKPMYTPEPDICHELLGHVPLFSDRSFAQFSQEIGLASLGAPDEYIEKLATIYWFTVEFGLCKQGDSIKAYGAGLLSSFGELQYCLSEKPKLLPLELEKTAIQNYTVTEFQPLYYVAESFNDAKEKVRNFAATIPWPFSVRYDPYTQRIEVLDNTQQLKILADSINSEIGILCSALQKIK
Kind of test: Cell Based Phenylalanine Flux Assay. Conditions: A375 R408W cells; 24 hrs with compound, then 20 μM sepiapterin and 800 μM 13C9,15N-Phenylalanine for 4 hours; 13C-Tyrosine by LC-MS; average where tested multiple times. The essentials: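 Puromycin-selected A375 line, lentiviral hPAH R408W; cmpd 24 h, 37 °C, 5% CO2, 0.5% DMSO; then 20 μM sepiapterin + 800 μM 13C9,15N-Phe, 4 h; media extracted in 80% MeCN; 13C-Tyr by LC-MS; AC50 from 10-pt curves.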
Regarding `CC(C)n1nccc1C(=O)N1CCc2[nH]cnc2[C@H]1c1nc2ccccc2o1` [Example 752, (S)-(4-(benzo[d]oxazol-2-yl)-6,7-dihydro-1H-imidazo[4,5-c]pyridin-5(4H)-yl)(1-isopropyl-1H-pyrazol-5-yl)methanone], the AC50 (in general, the concentration giving half of the maximal activity seen) is at most 500 nM.

In the case of `O=C(c1nnc(-c2ccn(C(F)F)n2)o1)N1CCc2[nH]cnc2[C@H]1c1nc2cccc(C(F)(F)F)c2o1` [Example 854, (S)-(5-(1-(difluoromethyl)-1H-pyrazol-3-yl)-1,3,4-oxadiazol-2-yl)(4-(7-(trifluoromethyl)benzo[d]oxazol-2-yl)-6,7-dihydro-1H-imidazo[4,5-c]pyridin-5(4H)-yl)methanone], the AC50 is at most 500 nM.

Turning to `O=C(c1ocnc1C(F)F)N1CCc2[nH]cnc2[C@H]1c1nc2c(Br)cccc2o1` [Example 433, (S)-(4-(4-bromobenzo[d]oxazol-2-yl)-6,7-dihydro-1H-imidazo[4,5-c]pyridin-5(4H)-yl)(4-(difluoromethyl)oxazol-5-yl)methanone], the AC50 is at most 500 nM.

On to `Cc1cc(C(=O)N2CCc3[nH]cnc3[C@@H]2c2nc3cccc(F)c3o2)n(C)n1` [Example 770, (R)-(1,3-dimethyl-1H-pyrazol-5-yl)(4-(7-fluorobenzo[d]oxazol-2-yl)-6,7-dihydro-1H-imidazo[4,5-c]pyridin-5(4H)-yl)methanone], for which the AC50 was 1000 to 5000 nM.

Consider `COc1cccc2oc([C@H]3c4nc[nH]c4CCN3C(=O)c3oc(C(C)(C)O)nc3C(F)F)nc12` [Example 428, (R)-(4-(difluoromethyl)-2-(2-hydroxypropan-2-yl)oxazol-5-yl)(4-(4-methoxybenzo[d]oxazol-2-yl)-6,7-dihydro-1H-imidazo[4,5-c]pyridin-5(4H)-yl)methanone], for which the AC50 lay within 1000 to 5000 nM.

Consider `O=C(c1nnc(-c2ccccn2)o1)N1CCc2[nH]cnc2[C@@H]1c1nc2c(F)cc(F)cc2o1` [Example 524, (R)-(4-(4,6-difluorobenzo[d]oxazol-2-yl)-6,7-dihydro-1H-imidazo[4,5-c]pyridin-5(4H)-yl)(5-(pyridin-2-yl)-1,3,4-oxadiazol-2-yl)methanone], for which the AC50 was 1000 to 5000 nM.

As for `Cn1nc(C(F)F)nc1C(=O)N1CCc2[nH]cnc2[C@@H]1c1nc2c(F)ccc(F)c2o1` [Example 485, (R)-(4-(4,7-difluorobenzo[d]oxazol-2-yl)-6,7-dihydro-1H-imidazo[4,5-c]pyridin-5(4H)-yl)(3-(difluoromethyl)-1-methyl-1H-1,2,4-triazol-5-yl)methanone], the AC50 was in the range of 1000 to 5000 nM.

For `Cc1ccc2oc([C@H]3c4nc[nH]c4CCN3C(=O)c3oc(C(C)(C)O)nc3Br)nc2c1` [Example 408, (R)-(4-bromo-2-(2-hydroxypropan-2-yl)oxazol-5-yl)(4-(5-methylbenzo[d]oxazol-2-yl)-6,7-dihydro-1H-imidazo[4,5-c]pyridin-5(4H)-yl)methanone], the AC50 fell in the range of 500 to 1000 nM.

The same test, now with this note: A375 cells expressing R408W PAH; 24 hrs with compound, then 20 μM sepiapterin and 800 μM 13C9,15N-Phenylalanine for 4 hours; 13C-Tyrosine by LC-MS; average where tested multiple times.
With `Cn1cc(-c2nnc(C(=O)N3CCc4[nH]cnc4C3c3nc4cc(C(F)(F)F)ccc4o3)o2)cn1` (stereo not drawn), the AC50 lay in the range of 1000 to 5000 nM.

In the case of `O=C(c1cncs1)N1CCc2[nH]cnc2C1c1nc2ccc(Br)cc2o1` (stereo not drawn), the AC50 was at least 5000 nM.

With `CNC(C)(C)c1nc(C)c(C(=O)N2CCc3[nH]cnc3C2c2nc3cc(F)ccc3o2)o1` (single isomer, unassigned) [4R enantiomer of (2-{5-[4-(5-fluoro-1,3-benzoxazol-2-yl)-1H,], the AC50 was at least 5000 nM.

With `Cc1ccc2oc(C3c4nc[nH]c4CCN3C(=O)c3nc(C)nn3C)nc2c1` (stereo not drawn), the half-maximal activity concentration (AC50) was in the range of 1000 to 5000 nM.

Turning to `Cc1ccc2nc(C3c4nc[nH]c4CCN3C(=O)c3cnn4cc(CN(C)C)ccc34)oc2c1` (stereo not drawn), the AC50 was at least 5000 nM.

As to `O=C(c1nccs1)N1CCc2[nH]cnc2C1c1nc2ccc(Br)cc2o1` (stereo not drawn), the AC50 lay in the range of 1000 to 5000 nM.

Regarding `O=C(CCc1nccs1)N1CCc2[nH]cnc2C1c1nc2ccc(F)cc2o1` (stereo not drawn), the AC50 was at least 5000 nM.
